{"source": "patent US20220282304A1", "about": "“SAME-SAMPLE ANTIBIOTIC SUSCEPTIBILITY TEST AND RELATED COMPOSITIONS, METHODS AND SYSTEMS” (CALIFORNIA INSTITUTE OF TECHNOLOGY, priority 2021, published 2022)", "system": "Escherichia coli K12", "assay": "Digital same-sample filtration AST at four cell densities (Example 7)", "format": "cell-based", "conditions": "for treated condition EINAPV (fraction extracellular): untreated EINAPV 0; for Both (number of wells) / Empty (number of wells) / Extracellular only (number of wells) / Intracellular only (number of wells): 60 minutes 37° C., qPCR", "procedure": "The inoculum was small enough that no detectable difference in the sample's optical density at 600 mm (OD600) was detectable by a spectrophotometer with a sensitivity of 0.01 absorbance units. After an incubation at 37° C., the media became turbid with an OD600 of 0.22 absorbance units after 2.25 hours of incubation.\nIn this experiment, the number and volume of sample partitions was restricted, for logistical reasons, to 96 partitions 10 μL in volume, specifically the wells of a 96-well plate. A goal was chosen of having a >98% chance of ending up with at least 48 empty partitions. When all partitions are the same volume, the following formula relates the expected number of empty partitions, the partition volume, and the density of cells.\nN is the total number of partitions, n is the number of empty partitions, V is the partition volume, D is the density of cells, and t is a threshold probability chosen by the practitioner. Thus, in order to achieve digital sample partitioning with the available 96-well plate, each 10 μL sample of the specimen practically contains between 0.02 and 2.5 cells on average. In this experiment, densities of 0, 0.5, 1, and 2 cells per sample were targeted. Due to systematic bias in the conversion of OD600 to cell density, the actual densities achieved were closer to 0, 0.09375, 0.1875, and 0.375 cells per sample. The specimen itself was diluted to a density of 37.5 CFU/mL (0.0375 cells/μL), 18.75 CFU/mL, and 9.375 CFU/mL to achieve the target sample densities. For the 0 cell samples, the specimen comprised sterile media.\nTo begin the AST protocol, the 4 contrived clinical specimen dilutions were physically split into the 24 partitions each by transferring 10 μL of the sample, in 24 separate transfers (actually 3 transfers with a multichannel pipette of each dilution), to wells of a 96-well microtiter plate. Each well contained 15 μL of Mueller-Hinton Broth (MHB) growth media. Half of the wells (48) contained 0 μg/mL of dissolved ETP antibiotic and served as reference condition antibiotic exposures. The other half of the wells contained 1.67 μg/mL of ETP (for a final concentration of 1.0 μg/mL) and served as 48 treated condition antibiotic exposures. Thus, in total there were 8 groups of 12 replicate wells: a treated and an untreated group of wells for each of the four specimen dilutions. In actuality, however, due to operator error, 4 treated 0 cell conditions and 4 untreated 0 cell conditions were converted into the corresponding 0.1875 cell conditions.\nThe 96 antibiotic exposures were incubated at 37° C. for 60 minutes.\nThe entire volume of each antibiotic exposure was transferred to a Millipore® 96-well sterile polystyrene MultiScreenHTS® filter plate (Millipore-Sigma MSGVS2210). Each well of the filter plate contained a hydrophilic polyvinylidene fluoride (PVDF) filter membrane with a 0.22 μm pore size. A 96-well polypropylene microtiter plate was affixed to the bottom of the filter plate. At approximately 78 minutes after the start of the exposure, the antibiotic exposures were centrifuged at 2200 relative centrifugal force to speed the passage of the antibiotic exposure through the filter and into 96-well microtiter plate. The collected fluid was called the “filtrate.” It is expected that the filtrate will contain all or most of the extracellular nucleic acids present in the antibiotic exposure, but none of the intracellular nucleic acids in the antibiotic exposure.\nAs soon as possible (e.g. 0-10 minutes) after the centrifugation of the filter plate, […] of fresh MHB media was spun through the filters after the first centrifugation (above) to wash away residual extracellular nucleic acids present in the small amount (about 3 μL) of fluid wetting the filters. This wash fluid is not collected with the filtrates.\nThe filtrates were frozen at −80° C. to prevent hypothetical rRNA degradation. Lucigen DNA Extraction Buffer was not used to “extract” the filtrate DNA. […]", "key": {"[1]": {"conditions": "Treated 1.0 μg ETP/mL, batch culture dilution 0 cells, 8 partitions"}, "[2]": {"conditions": "Treated 1.0 μg ETP/mL, batch culture dilution 0.09375 cells, 12 partitions"}, "[3]": {"conditions": "Treated 1.0 μg ETP/mL, batch culture dilution 0.1875 cells, 16 partitions"}, "[4]": {"conditions": "Treated 1.0 μg ETP/mL, batch culture dilution 0.375 cells, 12 partitions"}, "[5]": {"conditions": "Treated 1.0 μg ETP/mL, batch culture dilution 0 cells"}, "[6]": {"conditions": "Treated 1.0 μg ETP/mL, batch culture dilution 0.09375 cells"}, "[7]": {"conditions": "Treated 1.0 μg ETP/mL, batch culture dilution 0.1875 cells"}, "[8]": {"conditions": "Treated 1.0 μg ETP/mL, batch culture dilution 0.375 cells"}}, "data": [{"smiles": "C[C@@H](O)[C@H]1C(=O)N2C(C(=O)O)=C(S[C@@H]3CN[C@H](C(=O)Nc4cccc(C(=O)O)c4)C3)[C@H](C)[C@H]12", "note": "[ETP, ertapenem]", "values": [{"measurement": "treated condition EINAPV (fraction extracellular)", "setting": "1.0 μg/mL ETP, non-zero dilution 0.09375 cells", "result": 1}, {"measurement": "treated condition EINAPV (fraction extracellular)", "setting": "1.0 μg/mL ETP, non-zero dilution 0.1875 cells", "result": 1}, {"measurement": "treated condition EINAPV (fraction extracellular)", "setting": "1.0 μg/mL ETP, non-zero dilution 0.375 cells", "result": 1}, {"measurement": "susceptibility call (measured TRPQ higher than APTV)", "setting": "1.0 μg/mL ETP, one pooled treated vs one pooled reference condition", "result": "susceptible"}, {"measurement": "susceptibility call (binomial exact test)", "setting": "1.0 μg/mL ETP, significance threshold 0.001", "result": "susceptible"}, {"measurement": "Both (number of wells)", "setting": "[1]", "result": 0}, {"measurement": "Empty (number of wells)", "setting": "[1]", "result": 8}, {"measurement": "Extracellular only (number of wells)", "setting": "[1]", "result": 0}, {"measurement": "Intracellular only (number of wells)", "setting": "[1]", "result": 0}, {"measurement": "Both (number of wells)", "setting": "[2]", "result": 0}, {"measurement": "Empty (number of wells)", "setting": "[2]", "result": 10}, {"measurement": "Extracellular only (number of wells)", "setting": "[2]", "result": 2}, {"measurement": "Intracellular only (number of wells)", "setting": "[2]", "result": 0}, {"measurement": "Both (number of wells)", "setting": "[3]", "result": 0}, {"measurement": "Empty (number of wells)", "setting": "[3]", "result": 13}, {"measurement": "Extracellular only (number of wells)", "setting": "[3]", "result": 3}, {"measurement": "Intracellular only (number of wells)", "setting": "[3]", "result": 0}, {"measurement": "Both (number of wells)", "setting": "[4]", "result": 0}, {"measurement": "Empty (number of wells)", "setting": "[4]", "result": 2}, {"measurement": "Extracellular only (number of wells)", "setting": "[4]", "result": 10}, {"measurement": "Intracellular only (number of wells)", "setting": "[4]", "result": 0}, {"measurement": "Intact (expected number of cells)", "setting": "[5]", "result": 0}, {"measurement": "Killed (expected number of cells)", "setting": "[5]", "result": 0}, {"measurement": "Intact (expected number of cells)", "setting": "[6]", "result": 0}, {"measurement": "Killed (expected number of cells)", "setting": "[6]", "result": 2.14}, {"measurement": "Intact (expected number of cells)", "setting": "[7]", "result": 0}, {"measurement": "Killed (expected number of cells)", "setting": "[7]", "result": 3.32}, {"measurement": "Intact (expected number of cells)", "setting": "[8]", "result": 0}, {"measurement": "Killed (expected number of cells)", "setting": "[8]", "result": 15.69}, {"measurement": "estimated cells lysed, all treated samples pooled", "setting": "Treated 1.0 μg ETP/mL, sum over dilutions, rounded to 21 lysis events", "result": 21.25}]}]}
